Converted amounts (≈) assume the structure as drawn.
Legend:
ovarian cancer = details: cited from earlier work
breast cancer = details: cited from earlier work
lung cancer = details: cited from earlier work
[1] = test system: A375P human melanoma cells; test: GSH/GSSG glutathione content and cell count (toxicity), RP-HPLC; format: cell-based; details: Docetaxel 0.5 μM, statin 20 μM
Procedure: (§1) Toxicities of the applied drugs were tested by a measurement of reduced and oxidised glutathione GSH/GSSG contents in the human melanoma cells. The glutathione contents were analysed by RP-HPLC. A method from prior art [references 1-4] was used.
(§2) The applied method consists in a reaction of GSH and GSSG with N-dinitrofluorobenzene, yielding N,S-dinitro-derivatives in the case of GSH and N,N-dinitro-derivatives in the case of GSSG. The elutions were carried out in a water-acetonitrile system, in accordance to the increasing acetonitrile concentration.
(§3) Determination of the levels of reduced glutathione, oxidised glutathione, and total glutathione were carried out using an RP-HPLC system from Shimadzu (SPD-M10VP photodiode matrix detector, class VP 7.2 software). The separations were carried out at a temperature of 20° C. using a Luna 5u C18 (Z) column (250 mm×4.6 mm, from Phenomenex), with a guard column with the same packing. Grade solvents were used as the eluant in the separations: acetonitrile/0.1% TFA and H2O/0.1% TFA. The separation was obtained in gradient elution, under a non-linear increase in the acetonitrile concentration from 20% to 100% during 90 minutes, at a flow of 1.0 ml/min. Samples with a volume of 20 μl were introduced into the column, filtered earlier using PTFE filters with a pore diameter of 0.2 μm (Supelco). The analysis of the compounds was carried out with UV-VIS detection at 365 nm. The cells were suspended in a 70% PCA/1 mM BPDS/0.9% NaCl solution in a 1:3 ratio, sonicated for 3×5 seconds (Bandelin SonoplusGM70) at a temperature of 4° C. and centrifuged under 1400 g at a temperature of 4° C. for 10 minutes. The prepared supernatant was used for the assays.
(§4) For identification of the tested compounds, proper standard solutions were used: GSH and GSSG.
(§5) All standard solutions were prepared in 10% PCA/1 mM BPDS, in redistilled water.
(§6) To determine the GSH and GSSG levels, calibration curves were used, prepared for standard solutions in the concentration range of 13 to 75 nmol/ml of the corresponding cell homogenate. The incubation mixture contained, respectively: supernatant originating from the cells, N-methyl-L-lysine (internal standard), 10% PCA/1 mM BPDS, 2 M KOH-2.4 M KHCO3 and 1% DNFB.
(§7) In the case of the calibration curve, the incubation mixture was prepared in an analogous way, but various volumes of standard solutions were added, and the final volume was controlled by the amount of the 10% PCA/1 mM BPDS added. After 24 h derivatization at room temperature, in darkness, the samples were acidified by adding 70% PCA and centrifuged for 2 minutes under 5600 g. The obtained supernatant was filtered through a PTFE-Supelco filter, introduced into the column, and 90-minute separation of the analysed compounds was carried out. The chromatograms were worked out identifying the compounds being separated according to their retention times, based on the standards available, and totalising the surface areas of the chromatographic peaks in the ranges of selected retention times.
(§8) Toxicities of the applied drugs were tested by a measurement of GSH/GSSG contents in the human melanoma cells. The glutathione contents were analysed by HPLC. A method drawn from the papers by [Bronowicka, Wróbel, Dominik] was used, described in detail in Example 2.

[2] = test system: WM239A human melanoma cells; test: as above; format: cell-based; details: Docetaxel 0.5 μM, statin 20 μM
Procedure: as §1, §2, §3, §4, §5, §6, §7, §8

[3] = test system: WM35 human melanoma cells; test: as above; format: cell-based; details: Docetaxel 0.5 μM, statin 20 μM
Procedure: as §1, §2, §3, §4, §5, §6, §7, §8

[4] = test system: A375P human melanoma cells; test: Taxol take-up into cells, HPLC; format: cell-based
Procedure: (§9) The tests were carried out using cell lines of human melanoma originating from three stages of development: WM35 of the radial growth phase, WM239A metastatic line and A375P metastasis to lungs, malignant line. For every measuring point, cells were grown in 4 100 mm coming dishes for each separate cell line. […] The analyses were repeated thrice in independent experiments, obtaining similar results. The results were averaged and reported in μM per a million of cells. The cells were counted using a Countess Invitrogen™ counter.
(§10) For determination of the amount of drug absorbed by the melanoma cells, chromatographic method was used. An HPLC system (Shimadzu Corporation Japan) consisting of two LC 10AT vp high-pressure pumps, a DGU-14A degasser, a CTO-10 ASvp oven for the column thermostating, an SIL-10 ADvp automatic sample feeder, and an SPD-M10 Avp diode detector, was used for the measurements. CLASS-VP 7.2.1 software was used.
(§11) The samples were separated on a Phenomenex Gemini −Nx 5μ C18 (4.6×150 mm i.d) column+guard column from Phenomenex (4×3 mm i.d.) with identical packing, at a temperature of 20° C. Eluant with the following composition: solvent A (water+0.1% trifluoroacetic acid [TFA]) and solvent B (acetonitrile 0.1% TFA) was used. The sample was separated in the following gradient system: 20% of solvent B to 30% of solvent B linearly for 15 min, next linearly to 34% for 6 min, linearly to 100% of solvent B for 24 min consecutively, then 10 min isocratically at 100% of solvent B. The column was recalibrated for […] in 20% of solvent B. 20-μl samples were introduced at a flowrate of 1.0 ml/min during 65 min with a UV-Vis detection at 220 nm.
(§12) The results were validated in two steps, by comparing the obtained Rt values to Rt values of standards, and by analysis of spectra of the separated compound and their comparison with spectra of the standards.
(§13) A frozen dry pellet was flushed with 650 μl of a solution (2/1 isopropanol, methanol+10% acetonitrile), then sonicated 3×15 s and frozen for 24 h. After thawing, the sample was shaken lightly for 30 min, 200 μl of physiological saline and 1083 μl of chloroform were added, stirring vigorously for 3×4 min. Separation of the organic phase from the aqueous phase was carried out by centrifugation at 10,000 revolutions/10 min. The collected chloroform phase were subjected to concentration under partial vacuum in a concentrator at 4° C., and to second drying under argon atmosphere. The precipitate was dissolved in 100 μl of methanol and separated by HPLC.
(§14) The tests were carried out using methods described in detail in Example 3.

[5] = test system: WM239A human melanoma cells; test: Taxol take-up into cells, HPLC; format: cell-based
Procedure: as §9, §10, §11, §12, §13, §14

[6] = test system: WM35 human melanoma cells; test: Taxol take-up into cells, HPLC; format: cell-based
Procedure: as §9, §10, §11, §12, §13, §14

[7] = test system: human melanoma cells (WM35, WM239A, A375P); test: "crystal violet" proliferation assay; format: cell-based; details: statin 50-12.5 μM with docetaxel regimen at constant 0.5 μM
Procedure: The tests were carried out using cell lines of human melanoma originating from three stages of development: WM35 of the radial growth phase, WM239A metastatic line and A375P metastasis to lungs, malignant line.
The following statins were used in the studies: atorvastatin, fluvastatin, rosuvastatin, and pravastatin. The tests were carried out using cell lines of human melanoma originating from invasive stages of development: WM239A metastatic line and A375P P-metastasis to lungs, malignant line. […] Methodology according to that described in Example 1 was used. Additionally, the toxicity was analysed by investigations of reduced and oxidised glutathione contents. HPLC method was used.

human melanoma cells [8] = test: Taxol take-up into cells, HPLC (conclusions over the lines); format: cell-based; details: for effect on take-up of taxanes into human melanoma cells: statin with docetaxel
[9] = cited from earlier work
human melanoma cells [10] = test: GSH/GSSG toxicity (conclusions over the lines); format: cell-based; details: GSH/GSSG contents; statin 20 μM with Docetaxel 0.5 μM
Procedure: as §1, §2
Determination of the levels of reduced glutathione, oxidised glutathione, and total glutathione were carried out using an RP-HPLC system from Shimadzu (SPD-M10VP photodiode matrix detector, class VP 7.2 software). The separations were carried out at a temperature of 20° C. using a Luna 5u C18 (Z) column (250 mm×4.6 mm, from Phenomenex), with a guard column with the same packing. Grade solvents were used as the eluant in the separations: acetonitrile/0.1% TFA and H2O/0.1% TFA. The separation was obtained in gradient elution, under a non-linear increase in the acetonitrile concentration from 20% to 100% during 90 minutes, at a flow of 1.0 ml/min. […]
Toxicities of the applied drugs were tested by a measurement of GSH/GSSG contents in the human melanoma cells. The glutathione contents were analysed by HPLC. […]

[11] = water/n-octanol; cited from earlier work
human fibroblast cells = test: "crystal violet" proliferation assay; details: simvastatin in various concentrations with TCM regimen
[12] = cell count 22.5 mln, in the presence of various statins
[13] = relative to Docetaxel (T) = 100
[14] = cell count 34.2 mln, in the presence of various statins
[15] = WM 35, cell count 35.4 mln, in the presence of various statins

CC(=O)O[C@H]1C(=O)[C@@]2(C)[C@H]([C@H](OC(=O)c3ccccc3)[C@]3(O)C[C@H](OC(=O)[C@H](O)[C@@H](NC(=O)c4ccccc4)c4ccccc4)C(C)=C1C3(C)C)[C@]1(OC(C)=O)CO[C@@H]1C[C@@H]2O [Paclitaxel, paclitaxel]
efficiency in treatment (ovarian cancer): 30% | efficiency in treatment (breast cancer): 50% | efficiency in treatment (lung cancer): 20%

CC(=O)O[C@@]12CO[C@@H]1C[C@H](O)[C@@]1(C)C(=O)[C@H](O)C3=C(C)[C@@H](OC(=O)[C@H](O)[C@@H](NC(=O)OC(C)(C)C)c4ccccc4)C[C@@](O)([C@@H](OC(=O)c4ccccc4)[C@H]21)C3(C)C [T, Docetaxel]
GSH ([1]; 48 h): 0.94 nmol/million of cells | GSH/GSSG ([1]; 48 h): 6.78 | GSSG ([1]; 48 h): 0.14 nmol/million of cells | Total glutathione ([1]; 48 h): 1.22 nmol/million of cells | Cell count after 48 h ([1]; initial count 5.9 mln): 11.1 mln | GSH ([2]; 48 h): 1.07 nmol/million of cells | GSH/GSSG ([2]; 48 h): 6.53 | GSSG ([2]; 48 h): 0.16 nmol/million of cells | Total glutathione ([2]; 48 h): 1.40 nmol/million of cells | Cell count after 48 h ([2]; initial count 6.2 mln): 10.1 mln | GSH ([3]; 48 h): 1.12 nmol/million of cells | GSH/GSSG ([3]; 48 h): 0.59 | GSSG ([3]; 48 h): 1.88 nmol/million of cells | Total glutathione ([3]; 48 h): 4.8 nmol/million of cells | Cell count after 48 h ([3]; initial count 7.1 mln): 10.1 mln | Taxol concentration [4, 12]: 36 µM | Taxol concentration per million of cells [4, 12]: 1.60 μM/million of cells | % content in cells [4, 13]: 100% | Taxol concentration [5, 14]: 74.8 µM | Taxol concentration per million of cells [5, 14]: 2.18 μM/million of cells | % content in cells [5, 13]: 100% | Taxol concentration [6, 15]: 57.08 µM | Taxol concentration per million of cells [6, 15]: 1.61 μM/million of cells | % content in cells ([6]; WM 35, relative to Docetaxel (T) = 100): 100%

CC(C)c1c(C(=O)Nc2ccccc2)c(-c2ccccc2)c(-c2ccc(F)cc2)n1CC[C@@H](O)C[C@@H](O)CC(=O)O [atorvastatin]
increase of Taxol content in melanoma cells, on average ([6]; WM35 (radial phase), in relation to the control with Taxol alone): two hundred percent | effect on proliferation of human melanoma cells [7]: permanently inhibit synergistically | take-ups higher by (human melanoma cells [8]; melanoma cells from more advanced progression phases, vs Taxol alone): 30-45% | effect on take-up of taxanes into human melanoma cells (human melanoma cells [8]): selectively increases the taxanes take-up into human melanoma cells

CC(C)n1c(/C=C/C(O)CC(O)CC(=O)O)c(-c2ccc(F)cc2)c2ccccc21 (centres unmarked) [fluvastatin]
solubility in water [9]: 0.46 µg/mL (≈ 1.12 µM)

CC[C@H](C)C(=O)O[C@H]1C[C@H](O)C=C2C=C[C@H](C)[C@H](CC[C@@H](O)C[C@@H](O)CC(=O)O)[C@H]21 [pravastatin]
toxicity against human melanoma cells (human melanoma cells [10]): is not toxic and it does not affect the malignant cells | solubility in water [9]: 19000 µg/mL (≈ 44800 µM) | Log P [11]: 0.59

CC(C)c1nc(N(C)S(C)(=O)=O)nc(-c2ccc(F)cc2)c1/C=C/[C@@H](O)C[C@@H](O)CC(=O)O [rosuvastatin]
effect on take-up of taxanes into human melanoma cells (human melanoma cells [8]): weaker effect | solubility in water [9]: 88.6 µg/mL (≈ 184 µM)

CCC(C)(C)C(=O)O[C@H]1C[C@@H](C)C=C2C=C[C@H](C)[C@H](CC[C@@H]3C[C@@H](O)CC(=O)O3)[C@H]21 [simvastatin]
effect on proliferation of normal cells (human fibroblast cells): does not affect the normal cells of human skin such as fibroblasts

Reference: patent US10912756B2, “Method for the treatment of human melanoma” (UNIWERSYTET JAGIELLONSKI, priority 2017, dated 2021)
